This is an account of results in patent US7563592B2, “Alizarin-based chromogenic substrates, their uses and composition containing same” (Biomerieux, S.A., priority 1999, dated 2009).

One assay deals with Escherichia coli 115. In words: β-galactosidase detection in semi-solid Columbia medium (Example 1). Format: cell-based. The conditions noted are these: 0.2 g/l, no iron citrate.
The next assay relates to Serratia marcescens 042. The description is as above. Format: cell-based. The conditions noted are these: 0.2 g/l, no iron citrate.
The subject of assay [1] is Klebsiella pneumoniae 023. Described as above. Format: cell-based. Conditions: 0.2 g/l, no iron citrate; 48 H.
In another assay the test system is Listeria seeligeri 080. In words: β-glucosidase detection in API strip wells (Example 6). The conditions noted are these: 0.4 g/l; 24 H.
A further assay deals with eight (8) species tested. Description: β-glucosidase detection in API strip wells, all species together (Example 6). Format: cell-based. Conditions: of the eight (8) species tested; 0.4 g/l.
A further assay has as its system Listeria ivanovii 018. In words: β-glucosidase detection in API strip wells (Example 6). Conditions: 0.4 g/l.
For another assay, the system named is Citrobacter koseri 059. In words: Comparison of glucoside substrates in semi-solid Columbia medium (Example 7). Format: cell-based.
Assay [2] deals with Enterococcus faecalis 117. Described as above. Type of assay: cell-based.
Another assay deals with Enterococcus faecium 009. In words: β-glucosidase detection in API strip wells (Example 6). Conditions: 0.4 g/l.
For another assay, the system named is Listeria innocua 036. The assay is described as above. The conditions noted are these: 0.4 g/l.
The subject of assay [3] is Listeria monocytogenes 022. Described as above. The conditions noted are these: 0.4 g/l.
Assay [4] relates to Klebsiella pneumoniae 023. Description: Comparison of glucoside substrates in semi-solid Columbia medium (Example 7). Format: cell-based.
Assay [5] concerns Klebsiella pneumoniae 023. In words: β-glucosidase detection in API strip wells (Example 6). Conditions: 0.4 g/l.
The test system of assay [6] is eight strains possessing β-galactosidase activity. Description: Fluorescent check of β-galactosidase activity in the eight discordant strains (Example 2). The conditions noted are these: all eight strains that selectively hydrolyzed Alizarin-2-β-D-galactoside. Format: cell-based. The source says:
The vast majority of strains (96.5%) reacted in exactly the same way—i.e. either positively or negatively—with both substrates. Eight strains selectively hydrolyzed Alizarin-2-β-D-galactoside. […] Therefore, these substrates are extremely sensitive and can be used at very low concentrations.

The mark [7] stands for this setting: 0.15 g/l, no iron citrate, 18 H.
Where [8] appears, read: 0.15 g/l, no iron citrate, 24 H.
The mark [9] stands for this setting: 0.15 g/l, no iron citrate, 48 H.
[10] abbreviates: 0.05 g/l + iron citrate 0.05 g/l, 18 H.
The mark [11] stands for this setting: 0.05 g/l + iron citrate 0.05 g/l, 24 H.
The mark [12] stands for this setting: 0.05 g/l + iron citrate 0.05 g/l, 48 H.
The mark [13] stands for this setting: 0.1 g/l + iron citrate 0.05 g/l, 18 H.
[14] abbreviates: 0.1 g/l + iron citrate 0.05 g/l, 24 H.
The mark [15] stands for this setting: 0.1 g/l + iron citrate 0.05 g/l, 48 H.

For the compound `OC[C@H]1O[C@@H](Oc2c[nH]c3cc(Cl)ccc23)[C@H](O)[C@@H](O)[C@H]1O` [6-Chloro-3-indolyl-β-D-galactoside, reference compound], the Color entry with Escherichia coli 115 (18 H), in the assay with Escherichia coli 115 (24 H), in the assay on Escherichia coli 115 (48 H), in the assay with Serratia marcescens 042 (18 H), in the assay with Serratia marcescens 042 (24 H) and in the assay on Serratia marcescens 042 (48 H) was “pink” in each case. Moreover, the Color entry in [1] is “pink”. Further, the Intensity came to 3.5 in the assay with Escherichia coli 115 (18 H); 3.5 with Escherichia coli 115 (24 H); 3.5 in the assay with Escherichia coli 115 (48 H); 0.3 with Serratia marcescens 042 (18 H); 0.8 in the assay on Serratia marcescens 042 (24 H); 3.5 with Serratia marcescens 042 (48 H). Also, the Intensity in assay [1] amounted to 0.3.

`OC[C@H]1O[C@@H](Oc2c[nH]c3cc(Cl)ccc23)[C@H](O)[C@@H](O)[C@@H]1O` [reference compound]: the Color observed result in the assay on Listeria seeligeri 080, with Listeria ivanovii 018 (4 H), in the assay on Listeria ivanovii 018 (24 H), with Enterococcus faecium 009 (4 H), in the assay on Enterococcus faecium 009 (24 H) and in the assay on Listeria innocua 036 (4 H) was “Pink” in each case. The Color observed result (in the assay with Listeria innocua 036 (24 H); in assay [3] (4 H); in assay [3] (24 H); in [5] (4 H); in [5] (24 H)) was “Pink” throughout. In the assay with eight (8) species tested, the “species in which activity was detected” value was determined as 6 species. In addition, the Color result (with Citrobacter koseri 059 (setting [7]); in the assay on Citrobacter koseri 059 (setting [8]); with Citrobacter koseri 059 (setting [9]); in assay [2] (setting [7]); in [2] (setting [8]); in assay [2] (setting [9])) was “Pink” in each case. Also, the Color entry in assay [4] (setting [7]), in assay [4] (setting [8]) and in assay [4] (setting [9]) was “Pink” throughout. Moreover, the Intensity with Citrobacter koseri 059 (setting [7]) was 0.5 arbitrary units; in the assay on Citrobacter koseri 059 (setting [8]), 1 arbitrary units; in the assay with Citrobacter koseri 059 (setting [9]) it was 2 arbitrary units; in assay [2] (setting [7]), 1.5 arbitrary units; in assay [2] (setting [8]), 2 arbitrary units; in assay [2] (setting [9]) it was 2.5 arbitrary units. Besides, the Intensity is given as 2 arbitrary units in assay [4] (setting [7]), 2.5 arbitrary units in assay [4] (setting [8]) and 3 arbitrary units in assay [4] (setting [9]).

With `O=C1c2ccccc2C(=O)c2c1ccc(O)c2O[C@@H]1O[C@H](CO)[C@@H](O)[C@H](O)[C@H]1O` [1-Alizarin1-β-D-glucoside, Alizarin-1-β-D-glucoside], the Color entry in the assay with Citrobacter koseri 059 (setting [10]), in the assay on Citrobacter koseri 059 (setting [11]), with Citrobacter koseri 059 (setting [12]), with Citrobacter koseri 059 (setting [13]), in the assay on Citrobacter koseri 059 (setting [14]) and in the assay with Citrobacter koseri 059 (setting [15]) was “Mauve” throughout. Moreover, the Color result in assay [2] (setting [10]), in [2] (setting [11]), in assay [2] (setting [12]), in [2] (setting [13]), in [2] (setting [14]) and in assay [2] (setting [15]) was “Purple” throughout. The Color result in assay [4] (setting [10]), in assay [4] (setting [11]), in [4] (setting [12]), in [4] (setting [13]), in assay [4] (setting [14]) and in assay [4] (setting [15]) was “Purple” each time. Further, the Intensity in the assay with Citrobacter koseri 059 (setting [10]) came to 1.5 arbitrary units; in the assay on Citrobacter koseri 059 (setting [11]), 2 arbitrary units; in the assay on Citrobacter koseri 059 (setting [12]), 2.5 arbitrary units; in the assay with Citrobacter koseri 059 (setting [13]), 2.5 arbitrary units; with Citrobacter koseri 059 (setting [14]), 3 arbitrary units; with Citrobacter koseri 059 (setting [15]), 4 arbitrary units. Also, the Intensity in assay [2] (setting [10]) is 3.5 arbitrary units; in assay [2] (setting [11]), 4 arbitrary units; in assay [2] (setting [12]), 4 arbitrary units; in [2] (setting [13]), 3.5 arbitrary units; in assay [2] (setting [14]), 4 arbitrary units; in assay [2] (setting [15]), 4 arbitrary units. Further, the Intensity is 2.5 arbitrary units in assay [4] (setting [10]); 3 arbitrary units in assay [4] (setting [11]); 3.5 arbitrary units in assay [4] (setting [12]); 3.5 arbitrary units in assay [4] (setting [13]); 4 arbitrary units in assay [4] (setting [14]); 4 arbitrary units in assay [4] (setting [15]).

In the case of `Cc1cc(=O)oc2cc(O[C@@H]3O[C@H](CO)[C@H](O)[C@H](O)[C@H]3O)ccc12` [4-Methylumbelliferyl-β-D-galactoside], in assay [6], the “signal in the presence of the substrate” value is given as “production of a fluorescent signal”.
